Experimental data published in publication PMC5829162, “Rational Design, Synthesis and Biological Evaluation of Pyrimidine-4,6-diamine derivatives as Type-II inhibitors of FLT3 Selective Against c-KIT” (Scientific Reports, 2018).

Molecular target: T1, FLT3 kinase (Homo sapiens, UniProt P36888)
T1 construct: purchased Invitrogen
T1 sequence (P36888 27-993): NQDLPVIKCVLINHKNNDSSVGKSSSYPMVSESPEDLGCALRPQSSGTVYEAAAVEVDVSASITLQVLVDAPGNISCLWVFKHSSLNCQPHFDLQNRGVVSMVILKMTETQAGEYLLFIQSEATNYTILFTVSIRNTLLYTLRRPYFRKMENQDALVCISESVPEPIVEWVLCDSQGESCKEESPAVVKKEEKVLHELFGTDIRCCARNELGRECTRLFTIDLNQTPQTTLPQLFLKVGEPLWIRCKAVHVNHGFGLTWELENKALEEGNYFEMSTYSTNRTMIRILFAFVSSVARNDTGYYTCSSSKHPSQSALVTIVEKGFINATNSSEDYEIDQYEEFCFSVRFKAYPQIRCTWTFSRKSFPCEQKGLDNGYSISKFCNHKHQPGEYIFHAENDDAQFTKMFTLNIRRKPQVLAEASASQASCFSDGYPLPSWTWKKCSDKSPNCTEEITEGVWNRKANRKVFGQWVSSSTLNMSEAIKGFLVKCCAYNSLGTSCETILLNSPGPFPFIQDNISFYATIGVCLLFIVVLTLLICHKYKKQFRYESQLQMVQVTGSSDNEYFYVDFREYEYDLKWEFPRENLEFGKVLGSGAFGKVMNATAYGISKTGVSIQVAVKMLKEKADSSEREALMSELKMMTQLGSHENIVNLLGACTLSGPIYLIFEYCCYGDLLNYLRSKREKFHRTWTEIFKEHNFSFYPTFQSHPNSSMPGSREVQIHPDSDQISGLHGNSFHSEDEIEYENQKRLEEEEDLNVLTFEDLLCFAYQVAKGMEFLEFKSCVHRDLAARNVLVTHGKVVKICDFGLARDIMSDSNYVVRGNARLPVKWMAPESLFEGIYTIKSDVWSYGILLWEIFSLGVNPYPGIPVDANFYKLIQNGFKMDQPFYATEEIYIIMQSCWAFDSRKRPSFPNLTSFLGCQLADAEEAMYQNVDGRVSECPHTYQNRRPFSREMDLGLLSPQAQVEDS
Assay: Biochemical enzyme inhibition assay (microfluidics, Caliper EZ Reader II), FLT3
Details: for IC50: in vitro kinase assay, 60 min pre-incubation, ATP 190 µM, three independent experiments, read-out: FLT3 IC50 (nM) ± SD; for LE: ligand efficiency for FLT3 inhibition

SMILES | fold less inhibition on other closely related kinases versus FLT3 (enzymatic level) [fold] | IC50 [nM] | LE | fold less active than 13a on FLT3 (enzymatic FLT3 IC50 compared with 13a)
Cn1nc(C(C)(C)C)cc1NC(=O)Cc1ccc(Nc2cc(Nc3ccc(S(C)(=O)=O)cc3)ncn2)cc1 [13a, 2-(4-(6-(4-(Methylsulfonyl)phenylamino)pyrimidin-4-ylamino)phenyl)-N-(3-tert-butyl-1-methyl-1H-pyrazol-5-yl)acetamide] | > 100 | 13.9 | 0.28 | 
CC(C)(C)c1cc(NC(=O)Cc2ccc(Nc3cc(Nc4ccc(S(C)(=O)=O)cc4)ncn3)cc2)no1 [13k, 2-(4-(6-(4-(Methylsulfonyl)phenylamino)pyrimidin-4-ylamino)phenyl)-N-(5-tert-butylisoxazol-3-yl)acetamide] |  | 63 | 0.27 | ~ 5 fold
